According to patent publication US11672786B2, “Methods of treating diseases associated with repeat instability” (The Hospital for Sick Children, priority 2016, dated 2023):

Columns and labels:
[1] = test system: long (CAG)20 slip-outs from (CAG)50●(CTG)30; experiment: band-shift NA-DNA binding, long (CAG)20 slip-out; set-up: species or system human; conditions: NA 0.15-50 μM, 4% polyacrylamide gel
Excerpt: FIG. 2 are the results of experiments showing that NA binds to long CAG slip-outs. […] The (CAG)n DNA sequence (left) can fold into an hairpin structure involving mismatched A-A pair flanking C-G base pairs (middle). NA molecules can intercalate into the DNA helix, with the 2-amino-1,8-naphthyridine moiety (in red) hydrogen bonding to guanine and 8-azaquinolone moiety (in blue) hydrogen bonding to adenine. […] Long slip-outs extruded as a single slip-out from a fully base-paired backbone of (CTG)n●(CAG)n, as described (Pearson et al., 2002, Nuc. Acids Res., 30:4534-47). DNAs were mixed with increasing concentrations of NA (0.15 μM, 0.75 μM, 7.5 μM and 50 μM) and resolved on 4% polyacrylamide gels. All lanes are from the same gel, and they were separated for clarity. NA-DNA complexes are shown by brackets, free DNA is indicated by arrowheads. […] The relative migration was measured for the linear and the three slip-outs substrates as the ratio of the migration distance of each NA-DNA complex to the migration distance of the free DNA. The migration distance was measured from the well to a consistent center point of each band. […]

[2] = test system: HT1080-(CAG)850 cells; experiment: cellular distribution by confocal microscopy; format: cell-based, human
Description: (§1) Scale bar represents 20 μm. […] The cell viability was estimated with WST-1 assays. Values represent the means of three independent measures±SD. […] Error bars indicate the SD of triplicate experiments. […] The dashed line indicates the peak CAG size. Allele lengths are grouped in bins spanning 10 repeats. More than 230 alleles were sized per group.
HT1080-(CAG)850 cells were incubated with 50-μM NBD-labeled NA for 48 hr and Cell Light Plasma Membrane-RFP, BacMam 2.0 (Life Technologies, Carlsbad, Calif.), then fixed for 15 min at RT with 4% paraformaldehyde and washed 2 times for 10 min in phosphate buffered saline (PBS). Cells were mounted with Vectashield hard-set mounting media that contains DAPI (Vector Laboratories, Burlingame, Calif.). Fluorescence images were obtained using Olympus FV1000D confocal laser scanning microscope (Olympus, Tokyo, Japan).

[3] = test system: HT1080-(CAG)850 cells; experiment: growth curves of cells; format: cell-based, human; conditions: 50 μM NA
Excerpt: as §1

naphthyridine-azaquinolone
NA binding (band-shift) [1]: extensively bound
cell permeability [2]: cell-permeable and can enter the nuclei
effect on cell proliferation (growth curves) [3]: lack of an effect upon cell proliferation
